# Tests used:
# BRAPP = assay: Example I: postemergence foliar-applied weed control, direct seeded rice weeds, greenhouse; assay type: in vivo; conditions: for Visual Weed Control Obs: 20 DAA; for Visual Weed Control (%) - 22 DAA BRAPP Obs: foliar
# Description: (§1) Seeds or nutlets of the desired test plant species were planted in a soil matrix prepared by mixing a loam or sandy loam soil (e.g., 28.6 percent silt, 18.8 percent clay, and 52.6 percent sand, with a pH of about 5.8 and an organic matter content of about 1.8 percent) and calcareous grit in an 80 to 20 ratio. The soil matrix was contained in plastic pots with a volume of 1 quart and a surface area of 83.6 square centimeters (cm^2). When required to ensure good germination and healthy plants, a fungicide treatment and/or other chemical or physical treatment was applied. The plants were grown for 8-22 days in a greenhouse with an approximate 14 hr photoperiod which was maintained at about 29° C. during the day and 26° C. during the night. Nutrients (Peters Excel® 15-5-15 5-Ca 2-Mg and iron chelate) were applied in the irrigation solution as needed and water was added on a regular basis. Supplemental lighting was provided with overhead metal halide 1000-Watt lamps as necessary. The plants were employed for testing when they reached the first through fourth true leaf stage.
# (§2) Treatments consisted of the acid or esters of 4-amino-3-chloro-5-fluoro-6-(4-chloro-2-fluoro-3-methoxy-phenyl)pyridine-2-carboxylic acid (Compound A), each formulated as an SC (suspension concentrate), and various herbicidal components alone and in combination. Forms of compound A were applied on an acid equivalent basis.
# (§3) Other herbicidal components were applied on an active ingredient basis and included very long chain fatty acid (VLCFA) synthesis-inhibiting and fatty acid/lipid synthesis-inhibiting herbicides acetochlor (technical grade material), acetochlor+dichlormid formulated as Topnotch®, pretilachlor (technical grade material), butachlor formulated as Butachlor EC, fentrazamide formulated as Fentrazamide EC, thiobencarb formulated as Bolero® 8EC, cafenstrole formulated as Himeadow® WP or Lapost® Flowable, benfuresate formulated as Full Shot®, dimethenamid-P formulated as Outlook®, indanofan (technical grade material), flufenacet formulated as Define® DF, mefenacet (technical grade material), S-metolachlor formulated as Dual® II Magnum, pethoxamid formulated as Successor® 600, and pyroxasulfone (technical grade material).
# (§4) Treatment requirements were calculated based upon the rates being tested, the concentration of active ingredient or acid equivalent in the formulation, and a 12 mL application volume at a rate of 187 L/ha.
# (§5) For treatments comprised of formulated compounds, measured amounts of compounds were placed individually in 25 mL glass vials and diluted in a volume of 1.25% (v/v) Agri-Dex® crop oil concentrated to obtain 12× stock solutions. […] Application solutions were prepared by adding an appropriate amount of each stock solution (e.g., 1 mL) and diluted to the appropriate final concentrations with the addition of 10 mL of an aqueous mixture of 1.25% (v/v) crop oil concentrate so that the final spray solutions contained 1.25+/−0.05% (v/v) crop oil concentrate.
# (§6) For treatments comprised of technical compounds, weighed amounts can be placed individually in 25 mL glass vials and dissolved in a volume of 97:3 v/v acetone/DMSO to obtain 12× stock solutions. […] Application solutions can be prepared by adding an appropriate amount of each stock solution (e.g., 1 mL) and diluted to the appropriate final concentrations with the addition of 10 mL of an aqueous mixture of 1.5% (v/v) crop oil concentrate so that the final spray solutions contain 1.25% (v/v) crop oil concentrate. When technical materials are used, the concentrated stock solutions can be added to the spray solutions so that the final acetone and DMSO concentrations of the application solutions are […], respectively. […]
# ECHCG [1] = assay: Example I: postemergence foliar-applied weed control, greenhouse; assay type: in vivo, Echinochloa crus-galli (L.) Beauv. (barnyardgrass); conditions: for Visual Weed Control Obs: 20 DAA
# Description: as §1, §2, §3, §4, §5, §6
# ECHCO = assay: as above; assay type: in vivo, Echinochloa colona (L.) Link (junglerice); conditions: for Visual Weed Control Obs: 20 DAA; for Visual Weed Control (%) - 19 DAA ECHCO Obs: foliar
# Description: as §1, §2, §3, §4, §5, §6
# LEFCH [2] = assay: as above; assay type: in vivo, Leptochloa chinensis (L.) Nees (Chinese sprangletop); conditions: for Visual Weed Control Obs: 20 DAA; for Visual Weed Control (%) - 22 DAA LEFCH Obs / Visual Weed Control (%) - 19 DAA LEFCH Obs: foliar
# Description: as §1, §2, §3, §4, §5, §6
# IPOHE = assay: as above; assay type: in vivo, Ipomoea hederacea Jacq. (ivyleaf morningglory); conditions: 20 DAA
# Description: as §1, §2, §3, §4, §5, §6
# ECHCG [3] = assay: Example II: in-water applied weed control, transplanted paddy rice, greenhouse; assay type: in vivo, Echinochloa crus-galli (L.) Beauv. (barnyardgrass)
# Experimental: (§7) Weed seeds or nutlets of the desired test plant species were planted in puddled soil (mud) prepared by mixing a shredded, non-sterilized mineral soil (50.5 percent silt, 25.5 percent clay, and 24 percent sand, with a pH of about 7.6 and an organic matter content of about 2.9 percent) and water at a 1:1 volumetric ratio. The prepared mud was dispensed in 365 mL aliquots into 16-ounce (oz.) non-perforated plastic pots with a surface area of 86.59 square centimeters (cm^2) leaving a headspace of 3 centimeters (cm) in each pot. Mud was allowed to dry overnight prior to planting or transplanting. Rice seeds were planted in Sun Gro MetroMix® 306 planting mixture, which typically has a pH of 6.0 to 6.8 and an organic matter content of about 30 percent, in plastic plug trays. Seedlings at the second or third leaf stage of growth were transplanted into 840 mL of mud contained in 32-oz. non-perforated plastic pots with a surface area of 86.59 cm^2 4 days prior to herbicide application. The paddy was created by filling the headspace of the pots with 2.5 to 3 cm of water. When required to ensure good germination and healthy plants, a fungicide treatment and/or other chemical or physical treatment was applied. The plants were grown for 4-22 days in a greenhouse with an approximate 14 hr photoperiod which was maintained at about 29′C during the day and 26° C. during the night. Nutrients were added as Osmocote® (19:6:12, N:P:K+ minor nutrients) at 2 g per 16-oz. pot and 4 g per 32-oz. pot. Water was added on a regular basis to maintain the paddy flood, and supplemental lighting was provided with overhead metal halide 1000-Watt lamps as necessary. The plants were employed for testing when they reached the first through fourth true leaf stage.
# as §2, with “(compound A)” for “(Compound A),”, “concentrate)” for “concentrate),”
# (§8) The herbicidal components were applied on an active ingredient basis and included very long chain fatty acid (VLCFA) synthesis-inhibiting and fatty acid/lipid synthesis-inhibiting herbicides acetochlor (technical grade material), acetochlor+dichlormid formulateded as Topnotch®, pretilachlor (technical grade material), butachlor formulated as Butachlor EC, fentrazamide formulated as Fentrazamide EC, thiobencarb formulated as Bolero® 8EC, cafenstrole formulated as Himeadow® WP or Lapost® Flowable, benfuresate formulated as Full Shot®, anilofos (technical grade material), mefenacet (technical grade material), molinate (technical grade material), and thenylchlor (technical grade material).
# (§9) Treatment requirements for each compound or herbicidal component were calculated based upon the rates being tested, the concentration of active ingredient or acid equivalent in the formulation, an application volume of 2 mL per component per pot, and an application area of 86.59 cm^2 per pot.
# (§10) For formulated compounds, a measured amount was placed in an individual 100 or 200 mL glass vial and was dissolved in a volume of 1.25% (v/v) Agri-Dex® crop oil concentrate to obtain application solutions.
# (§11) For technical grade compounds, a weighed amount was placed in an individual 100 to 200 mL glass vial and was dissolved in a volume of acetone to obtain concentrated stock solutions. […] The concentrated stock solutions obtained were diluted with an equivalent volume of an aqueous mixture containing 2.5% (v/v) crop oil concentrate so that the final application solutions contained 1.25% (v/v) crop oil concentrate.
# (§12) Applications were made by injecting with a pipetter appropriate amounts of the application solutions, individually and sequentially, into the aqueous layer of the paddy. Control plants were treated in the same manner with the solvent blank. […]
# ECHOR = assay: as above; assay type: in vivo, Echinochloa oryzoides (Ard.) Fritsch (early watergrass)
# Experimental: as §7
# as §2, with “(compound A)” for “(Compound A),”, “concentrate)” for “concentrate),”
# as §8, §9, §10, §11, §12
# CYPRO = assay: as above; assay type: in vivo, Cyperus rotundus L. (purple nutsedge)
# Experimental: as §7
# as §2, with “(compound A)” for “(Compound A),”, “concentrate)” for “concentrate),”
# as §8, §9, §10, §11, §12
# CYPIR = assay: Example I: postemergence foliar-applied weed control, greenhouse; assay type: in vivo, Cyperus iria L. (rice flatsedge); conditions: foliar
# Description: as §1, §2, §3, §4, §5, §6
# LEFCH [4] = assay: Example II: in-water applied weed control, transplanted paddy rice, greenhouse; assay type: in vivo, Leptochloa chinensis (L.) Nees (Chinese sprangletop); conditions: 19 DAA
# Experimental: as §7
# as §2, with “(compound A)” for “(Compound A),”, “concentrate)” for “concentrate),”
# as §8, §9, §10, §11, §12
compound,measurement,setting,value
"CCCCOCN(C(=O)CCl)c1c(CC)cccc1CC [Butachlor, N-(butoxymethyl)-2-chloro-N-(2,6-diethylphenyl)acetamide]",Visual Weed Control Obs,BRAPP; 112.5 gai/ha,0%
same,Visual Weed Control Obs,BRAPP; 225 gai/ha,0%
same,Visual Weed Control Obs,BRAPP; 450 gai/ha,0%
same,Visual Weed Control Obs,ECHCG [1]; 112.5 gai/ha,0%
same,Visual Weed Control Obs,ECHCG [1]; 225 gai/ha,0%
same,Visual Weed Control Obs,ECHCG [1]; 450 gai/ha,0%
same,Visual Weed Control Obs,ECHCO; 112.5 gai/ha,0%
same,Visual Weed Control Obs,ECHCO; 225 gai/ha,0%
same,Visual Weed Control Obs,ECHCO; 450 gai/ha,0%
same,Visual Weed Control Obs,LEFCH [2]; 112.5 gai/ha,0%
same,Visual Weed Control Obs,LEFCH [2]; 225 gai/ha,0%
same,Visual Weed Control Obs,LEFCH [2]; 450 gai/ha,0%
same,Visual Weed Control Obs,IPOHE; 112.5 gai/ha,20%
same,Visual Weed Control Obs,IPOHE; 450 gai/ha,30%
same,Visual Weed Control (%) - 21 DAA ECHCG Obs,ECHCG [3]; 225 gai/ha,40%
same,Visual Weed Control (%) - 21 DAA ECHCG Obs,ECHCG [3]; 450 gai/ha,20%
same,Visual Weed Control (%) - 21 DAA ECHOR Obs,ECHOR; 225 gai/ha,0%
same,Visual Weed Control (%) - 21 DAA ECHOR Obs,ECHOR; 450 gai/ha,20%
same,Visual Weed Control (%) - 21 DAA CYPRO Obs,CYPRO; 225 gai/ha,0%
same,Visual Weed Control (%) - 21 DAA CYPRO Obs,CYPRO; 450 gai/ha,0%
"CN(C(=O)COc1nc2ccccc2s1)c1ccccc1 [Mefenacet, 2-(2-benzothiazolyloxy)-N-methyl-N-phenylacetamide]",Visual Weed Control (%) - 22 DAA BRAPP Obs,BRAPP; 50 gai/ha,0%
same,Visual Weed Control (%) - 22 DAA BRAPP Obs,BRAPP; 100 gai/ha,0%
same,Visual Weed Control (%) - 22 DAA BRAPP Obs,BRAPP; 200 gai/ha,0%
same,Visual Weed Control (%) - 22 DAA LEFCH Obs,LEFCH [2]; 50 gai/ha,10%
same,Visual Weed Control (%) - 22 DAA LEFCH Obs,LEFCH [2]; 100 gai/ha,0%
same,Visual Weed Control (%) - 22 DAA CYPIR Obs,CYPIR; 100 gai/ha,0%
same,Visual Weed Control (%) - 22 DAA CYPIR Obs,CYPIR; 200 gai/ha,20%
same,pest or weed control at 300 g/ha,"ECHOR; Echinochloa oryzoides, 504 h, 300 gai/ha, 21 DAA, read-out: Visual Weed Control ECHOR Obs",80%
same,pest or weed control at 600 g/ha,"ECHOR; Echinochloa oryzoides, 504 h, 600 gai/ha, 21 DAA, read-out: Visual Weed Control ECHOR Obs",100%
same,pest or weed control at 1200 g/ha,"ECHOR; Echinochloa oryzoides, 504 h, 1200 gai/ha, 21 DAA, read-out: Visual Weed Control ECHOR Obs",100%
"CCSC(=O)N1CCCCCC1 [Molinate, S-ethyl hexahydro-1H-azepine-1-carbothioate]",pest or weed control at 1400 g/ha,"ECHOR; Echinochloa oryzoides, 504 h, 1400 gai/ha, 21 DAA, read-out: Visual Weed Control ECHOR Obs",55%
same,pest or weed control at 2800 g/ha,"ECHOR; Echinochloa oryzoides, 504 h, 2800 gai/ha, 21 DAA, read-out: Visual Weed Control ECHOR Obs",85%
"CCC1(CC2(c3cccc(Cl)c3)CO2)C(=O)c2ccccc2C1=O (racemic) [Indanofan, (RS)-2-[[2-(3-chlorophenyl)oxiranyl]methyl]-2-ethyl-1H-indene-1,3(2H)-dione]",Visual Weed Control (%) - 19 DAA ECHCO Obs,ECHCO; 37.5 gai/ha,0%
same,Visual Weed Control (%) - 19 DAA ECHCO Obs,ECHCO; 75 gai/ha,0%
same,Visual Weed Control (%) - 19 DAA ECHCO Obs,ECHCO; 150 gai/ha,35%
same,Visual Weed Control (%) - 19 DAA LEFCH Obs,LEFCH [2]; 37.5 gai/ha,0%
same,Visual Weed Control (%) - 19 DAA LEFCH Obs,LEFCH [2]; 75 gai/ha,0%
same,Visual Weed Control LEFCH Obs,LEFCH [4]; 37.5 gai/ha,10%
same,Visual Weed Control LEFCH Obs,LEFCH [4]; 75 gai/ha,20%
same,Visual Weed Control LEFCH Obs,LEFCH [4]; 150 gai/ha,95%
"COc1ccsc1CN(C(=O)CCl)c1c(C)cccc1C [Thenylchlor, 2-chloro-N-(2,6-dimethylphenyl)-N-[(3-methoxy-2-thienyl)methyl]acetamide]",pest or weed control at 135 g/ha,"ECHOR; Echinochloa oryzoides, 456 h, 135 gai/ha, 19 DAA, read-out: Visual Weed Control ECHOR Obs",35%
same,pest or weed control at 270 g/ha,"ECHOR; Echinochloa oryzoides, 456 h, 270 gai/ha, 19 DAA, read-out: Visual Weed Control ECHOR Obs",90%
same,Visual Weed Control LEFCH Obs,LEFCH [4]; 135 gai/ha,15%
same,Visual Weed Control LEFCH Obs,LEFCH [4]; 270 gai/ha,25%
"Cn1nc(C(F)(F)F)c(CS(=O)(=O)C2=NOC(C)(C)C2)c1OC(F)F [Pyroxasulfone, 3-[[[5-(difluoromethoxy)-1-methyl-3-(trifluoromethyl)-1H-pyrazol-4-yl]methyl]sulfonyl]-4,5-dihydro-5,5-dimethylisoxazole]",Visual Weed Control (%) - 22 DAA BRAPP Obs,BRAPP; 29.5 gai/ha,0%
same,Visual Weed Control (%) - 22 DAA BRAPP Obs,BRAPP; 59 gai/ha,0%
same,Visual Weed Control (%) - 22 DAA BRAPP Obs,BRAPP; 118 gai/ha,20%
same,Visual Weed Control (%) - 22 DAA ECHCG Obs,"ECHCG [1]; 59 gai/ha, foliar",70%
